What all share (type): in vivo
Experiment [1] concerns Echinochloa crus-galli (ECHCG). Briefly: Post-emergence Test, ECHCG. Conditions: sprayed after 8 days cultivation, 1000 g/ha, evaluated after 13 days. An outline of the steps: (§1)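 Pots sown with AMARE, SOLNI, SETFA, LOLPE, ECHCG, IPOHE, kept in glasshouse (24/16 °C, 14 h light, 65% humidity), sprayed at 1000 g/ha unless stated, in acetone/water 50:50 with 0.5% Tween 20. Damage scored after 13 days on a 0–5 scale (5=81–100%, 0=0%).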

Experiment [2] relates to Amaranthus retoflexus (AMARE). Kind of experiment: Pre-emergence Test, AMARE. Particulars: 1000 g/ha, evaluated after 13 days.
The subject of experiment [3] is Echinochloa crus-galli (ECHCG). Briefly: Pre-emergence Test, ECHCG. Conditions: 1000 g/ha, evaluated after 13 days.
Experiment [4] has as its system Setaria faberi (SETFA). Briefly: Pre-emergence Test, SETFA. Conditions: 1000 g/ha, evaluated after 13 days.
For experiment [5], the system named is Lolium perenne (LOLPE). Kind of experiment: Pre-emergence Test, LOLPE. Conditions: 1000 g/ha, evaluated after 13 days.
The test system of experiment [6] is Amaranthus retoflexus (AMARE). Briefly: Post-emergence Test, AMARE. Particulars: sprayed after 8 days cultivation, 1000 g/ha, evaluated after 13 days. An outline of the steps: as §1
Experiment [7] concerns Ipornoea hederacea (IPOHE). Kind of experiment: Post-emergence Test, IPOHE. Particulars: sprayed after 8 days cultivation, 1000 g/ha, evaluated after 13 days. A digest of the protocol:
as §1

The subject of experiment [8] is Lolium perenne (LOLPE). Briefly: Post-emergence Test, LOLPE. Conditions: sprayed after 8 days cultivation, 1000 g/ha, evaluated after 13 days. The protocol: (§2) Seeds of a variety of test species are sown in standard soil in pots (Amaranthus retoflexus (AMARE), Solarium nigrum (SOLNI), Setaria faberi (SETFA), Lolium perenne (LOLPE), Echinochloa crus-galli (ECHCG), Ipornoea hederacea (IPOHE)). After 8 days cultivation under controlled conditions in a glasshouse (at 24° C./16° C., day/night; 14 hours light; 65% humidity), the plants are sprayed with an aqueous spray solution derived from the formulation of the technical active ingredient in acetone/water (50:50) solution containing 0.5% Tween 20 (polyoxyethylene sorbitan monolaurate, CAS RN 9005-64-5). Compounds are applied at 1000 g/ha unless otherwise stated. The test plants are then grown in a glasshouse under controlled conditions in a glasshouse (at 24° C./16° C., day/night; 14 hours light; 65% humidity) and watered twice daily. After 13 days the test is evaluated for the percentage damage caused to the plant. The biological activities are shown in the following table on a five-point scale (5=81-100%; 4=61-80%; 3=41-60%; 2=21-40%; 1=10-20%; 0=0%; −=not tested).

The subject of experiment [9] is Solarium nigrum (SOLNI). Briefly: Post-emergence Test, SOLNI. Conditions: sprayed after 8 days cultivation, 1000 g/ha, evaluated after 13 days. The method, then:
as §2

Experiment [10] relates to Ipornoea hederacea (IPOHE). Briefly: Pre-emergence Test, IPOHE. Conditions: 1000 g/ha, evaluated after 13 days.
Experiment [11] has as its system Setaria faberi (SETFA). Kind of experiment: Post-emergence Test, SETFA. Particulars: sprayed after 8 days cultivation, 1000 g/ha, evaluated after 13 days. A digest of the protocol:
as §1

For experiment [12], the system named is Solarium nigrum (SOLNI). Briefly: Pre-emergence Test, SOLNI. Particulars: 1000 g/ha, evaluated after 13 days.
In experiment [13] the test system is ZEAMX. Briefly: Post-emergence Test, ZEAMX. Conditions: sprayed after 8 days cultivation, 1000 g/ha, evaluated after 13 days.
Experiment [14] concerns ZEAMX. Kind of experiment: Pre-emergence Test, ZEAMX. Conditions: 1000 g/ha, evaluated after 13 days.
Experiment [15] has as its system ABUTH. Kind of experiment: Post-emergence Test, ABUTH. Particulars: sprayed after 8 days cultivation, 1000 g/ha, evaluated after 13 days.
Experiment [16] concerns ABUTH. Kind of experiment: Pre-emergence Test, ABUTH. Conditions: 1000 g/ha, evaluated after 13 days.

SMILES strings stand for the structures.

With `CO/N=C(\C)c1cccc2c1c(=O)c(C(=O)OC)nn2-c1ccc(OC(F)(F)F)cc1` [Compound P1, methyl 5-[(E)-N-methoxy-C-methyl-carbonimidoyl]-4-oxo-1-[4-(trifluoromethoxy)phenyl] cinnoline-3-carboxylate], the “percentage damage caused to the plant, ECHCG” value in [1] and in [3] was 5 (5=81-100%) each time. Also, the “percentage damage caused to the plant, AMARE” value in [2] was 1 (1=10-20%); in experiment [6] it was 2 (2=21-40%). In addition, the entries for the “percentage damage caused to the plant, SETFA” value in experiment [4] and in experiment [11] were 5 (5=81-100%) and 4 (4=61-80%), respectively. Also, the “percentage damage caused to the plant, LOLPE” value in [5] and in experiment [8] was 4 (4=61-80%) throughout. The “percentage damage caused to the plant, IPOHE” value in experiment [7] was 2 (2=21-40%); in experiment [10] it was 1 (1=10-20%). Besides, the “percentage damage caused to the plant, SOLNI” value is on record as 3 (3=41-60%) in [9] and 1 (1=10-20%) in experiment [12].

For `O=C(O)c1nn(-c2ccc(Cl)cc2)c2cccc(Oc3ccc(F)cc3)c2c1=O` [Compound P11, 1-(4-chlorophenyl)-5-(4-fluorophenoxy)-4-oxo-cinnoline-3-carboxylic acid], the “percentage damage caused to the plant, ECHCG” value in [1] and in experiment [3] was 0 (0=0%) each time. The “percentage damage caused to the plant, AMARE” value in experiment [2] was 3 (3=41-60%); in experiment [6], 5 (5=81-100%). Besides, the “percentage damage caused to the plant, SETFA” value in experiment [4] and in experiment [11] was 0 (0=0%) in each case. Further, the “percentage damage caused to the plant, LOLPE” value in experiment [5] and in experiment [8] was 0 (0=0%) each time. The “percentage damage caused to the plant, IPOHE” value in experiment [7] and in [10] was 0 (0=0%) throughout. The figures for the “percentage damage caused to the plant, SOLNI” value in experiment [9] and in [12] were 1 (1=10-20%) and 5 (5=81-100%), respectively.

Turning to `COC(=O)c1nn(-c2ccc(OC(F)(F)F)cc2)c2cccc(-c3ccc(F)cc3)c2c1=O` [Compound P6, methyl 5-(4-fluorophenyl)-4-oxo-1-[4-(trifluoromethoxy)phenyl] cinnoline-3-carboxylate], the “percentage damage caused to the plant, ECHCG” value in experiment [1] and in experiment [3] was 0 (0=0%) throughout. The “percentage damage caused to the plant, AMARE” value in experiment [2] and in experiment [6] was 0 (0=0%) each time. The “percentage damage caused to the plant, SETFA” value in experiment [4] and in [11] was 0 (0=0%) in each case. Further, the “percentage damage caused to the plant, LOLPE” value in [5] and in [8] was 0 (0=0%) in each case. Also, the “percentage damage caused to the plant, IPOHE” value in experiment [7] and in experiment [10] was 0 (0=0%) in each case. Moreover, the “percentage damage caused to the plant, SOLNI” value in [9] and in experiment [12] was 0 (0=0%) throughout.

As for `C/C(=N\O)c1cccc2c1c(=O)c(C(=O)O)nn2-c1ccc(OC(F)(F)F)cc1` [Compound P15, 5-[(E)-N-hydroxy-C-methyl-carbonimidoyl]-4-oxo-1-[4-(trifluoromethoxy)phenyl] cinnoline-3-carboxylic acid], the “percentage damage caused to the plant, ECHCG” value in experiment [1] and in experiment [3] was 4 (4=61-80%) each time. The “percentage damage caused to the plant, AMARE” value was 2 (2=21-40%) in experiment [2] and 1 (1=10-20%) in experiment [6]. The “percentage damage caused to the plant, ZEAMX” value in experiment [13] and in experiment [14] was 3 (3=41-60%) throughout. Moreover, the “percentage damage caused to the plant, ABUTH” value is recorded as 3 (3=41-60%) in [15] and 2 (2=21-40%) in experiment [16]. Moreover, the “percentage damage caused to the plant, SETFA” value is recorded as 5 (5=81-100%) in experiment [4] and 3 (3=41-60%) in experiment [11]. The entries for the “percentage damage caused to the plant, IPOHE” value in experiment [7] and in experiment [10] were 3 (3=41-60%) and 0 (0=0%), respectively.

As to `CCOC(=O)c1nn(-c2ccc(OC(F)(F)F)cc2)c2cccc(C(C)=O)c2c1=O` [Compound P30, ethyl 5-acetyl-4-oxo-1-[4-(trifluoromethoxy)phenyl] cinnoline-3-carboxylate], the “percentage damage caused to the plant, ECHCG” value in experiment [1] and in experiment [3] was 4 (4=61-80%) throughout. Besides, the “percentage damage caused to the plant, AMARE” value in experiment [2] and in experiment [6] was 1 (1=10-20%) each time. Also, the “percentage damage caused to the plant, ZEAMX” value in [13] was 3 (3=41-60%); in experiment [14], 4 (4=61-80%). The entries for the “percentage damage caused to the plant, ABUTH” value in experiment [15] and in experiment [16] were 3 (3=41-60%) and 2 (2=21-40%), respectively. For the same compound, the “percentage damage caused to the plant, SETFA” value is reported as 5 (5=81-100%) in experiment [4] and 4 (4=61-80%) in experiment [11]. The entries for the “percentage damage caused to the plant, IPOHE” value in [7] and in [10] were 2 (2=21-40%) and 1 (1=10-20%), respectively.

For the compound `C=Cc1cccc2c1c(=O)c(C(=O)O)nn2-c1ccc(OC(F)(F)F)cc1` [Compound P17, 4-oxo-1-[4-(trifluoromethoxy)phenyl]-5-vinyl-cinnoline-3-carboxylic acid], the “percentage damage caused to the plant, ECHCG” value in experiment [1] is 3 (3=41-60%); in [3], 2 (2=21-40%). In addition, the “percentage damage caused to the plant, AMARE” value in experiment [2] and in experiment [6] was 2 (2=21-40%) throughout. Moreover, the “percentage damage caused to the plant, ZEAMX” value in [13] and in experiment [14] was 1 (1=10-20%) throughout. Moreover, the “percentage damage caused to the plant, ABUTH” value in experiment [15] and in experiment [16] was 1 (1=10-20%) throughout. Further, the “percentage damage caused to the plant, SETFA” value in experiment [4] and in [11] was 3 (3=41-60%) in each case. In addition, the “percentage damage caused to the plant, IPOHE” value in experiment [7] and in [10] was 0 (0=0%) each time.

With `C=Cc1cccc2c1c(=O)c(C(=O)OCC)nn2-c1ccc(OC(F)(F)F)cc1` [Compound P16, ethyl 4-oxo-1-[4-(trifluoromethoxy)phenyl]-5-vinyl-cinnoline-3-carboxylate], the “percentage damage caused to the plant, ECHCG” value in experiment [1] is given as 3 (3=41-60%); in [3] it was 2 (2=21-40%). In addition, the “percentage damage caused to the plant, AMARE” value in [2] and in [6] was 2 (2=21-40%) each time. The “percentage damage caused to the plant, ZEAMX” value in experiment [13] is recorded as 2 (2=21-40%); in experiment [14] it was 1 (1=10-20%). Also, the “percentage damage caused to the plant, ABUTH” value in experiment [15] is 1 (1=10-20%); in experiment [16], 2 (2=21-40%). The “percentage damage caused to the plant, SETFA” value in experiment [4] was 3 (3=41-60%); in [11], 4 (4=61-80%). Also, the “percentage damage caused to the plant, IPOHE” value in experiment [7] and in experiment [10] was 1 (1=10-20%) throughout.

Consider `CCOC(=O)c1nn(-c2ccc(OC(F)(F)F)cc2)c2cccc(CC=O)c2c1=O` [Compound P18, ethyl 4-oxo-5-(2-oxoethyl)-1-[4-(trifluoromethoxy)phenyl] cinnoline-3-carboxylate], for which the “percentage damage caused to the plant, ECHCG” value was 1 (1=10-20%) in experiment [1] and 0 (0=0%) in [3]. Besides, the “percentage damage caused to the plant, AMARE” value in experiment [2] and in experiment [6] was 0 (0=0%) throughout. Besides, the results for the “percentage damage caused to the plant, ZEAMX” value in experiment [13] and in experiment [14] were 1 (1=10-20%) and 0 (0=0%), respectively. In addition, the “percentage damage caused to the plant, ABUTH” value in experiment [15] was 1 (1=10-20%); in experiment [16], 0 (0=0%). Besides, the “percentage damage caused to the plant, SETFA” value in experiment [4] and in [11] was 1 (1=10-20%) each time. Besides, the “percentage damage caused to the plant, IPOHE” value was 1 (1=10-20%) in experiment [7] and 0 (0=0%) in [10].
